Test results reported in PMC11945486, “TAS1R2/TAS1R3 Single-Nucleotide Polymorphisms Affect Sweet Taste Receptor Activation by Sweeteners: The SWEET Project” (Nutrients, 2025).
Like-named read-outs stand apart in the source and are kept apart here. No end group written: not given here.

T1: human TAS1R2-WT/TAS1R3-C757R (Homo sapiens, UniProt Q7RTX0+Q8TE23, C757R)
T1 construct: expressed in transfected cells; host or cells: HEK293T stably expressing Gα16gust44
T1 sequence (Q8TE23 20-839): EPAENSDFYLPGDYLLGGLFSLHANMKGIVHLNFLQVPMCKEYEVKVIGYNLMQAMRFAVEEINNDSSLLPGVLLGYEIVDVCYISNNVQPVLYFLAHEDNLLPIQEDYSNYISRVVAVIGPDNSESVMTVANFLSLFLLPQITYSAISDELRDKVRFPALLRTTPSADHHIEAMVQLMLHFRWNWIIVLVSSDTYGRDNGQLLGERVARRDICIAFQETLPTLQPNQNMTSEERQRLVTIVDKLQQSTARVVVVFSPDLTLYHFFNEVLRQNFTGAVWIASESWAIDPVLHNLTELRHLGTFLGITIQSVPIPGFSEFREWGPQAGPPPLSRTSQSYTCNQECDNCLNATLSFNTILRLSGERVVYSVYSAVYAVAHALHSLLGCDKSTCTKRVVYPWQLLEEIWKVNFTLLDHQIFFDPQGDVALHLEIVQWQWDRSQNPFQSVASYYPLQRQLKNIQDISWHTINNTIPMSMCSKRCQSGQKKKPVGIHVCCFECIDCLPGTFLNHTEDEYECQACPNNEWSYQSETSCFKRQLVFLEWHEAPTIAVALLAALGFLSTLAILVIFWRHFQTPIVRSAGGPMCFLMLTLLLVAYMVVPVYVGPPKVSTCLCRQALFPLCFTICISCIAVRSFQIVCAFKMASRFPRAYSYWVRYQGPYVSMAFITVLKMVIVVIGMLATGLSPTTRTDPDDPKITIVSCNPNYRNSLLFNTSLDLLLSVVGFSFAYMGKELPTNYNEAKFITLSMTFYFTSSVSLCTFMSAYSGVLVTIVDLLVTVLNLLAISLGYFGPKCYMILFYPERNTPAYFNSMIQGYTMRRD
T1 sequence (Q7RTX0 21-852 C757R): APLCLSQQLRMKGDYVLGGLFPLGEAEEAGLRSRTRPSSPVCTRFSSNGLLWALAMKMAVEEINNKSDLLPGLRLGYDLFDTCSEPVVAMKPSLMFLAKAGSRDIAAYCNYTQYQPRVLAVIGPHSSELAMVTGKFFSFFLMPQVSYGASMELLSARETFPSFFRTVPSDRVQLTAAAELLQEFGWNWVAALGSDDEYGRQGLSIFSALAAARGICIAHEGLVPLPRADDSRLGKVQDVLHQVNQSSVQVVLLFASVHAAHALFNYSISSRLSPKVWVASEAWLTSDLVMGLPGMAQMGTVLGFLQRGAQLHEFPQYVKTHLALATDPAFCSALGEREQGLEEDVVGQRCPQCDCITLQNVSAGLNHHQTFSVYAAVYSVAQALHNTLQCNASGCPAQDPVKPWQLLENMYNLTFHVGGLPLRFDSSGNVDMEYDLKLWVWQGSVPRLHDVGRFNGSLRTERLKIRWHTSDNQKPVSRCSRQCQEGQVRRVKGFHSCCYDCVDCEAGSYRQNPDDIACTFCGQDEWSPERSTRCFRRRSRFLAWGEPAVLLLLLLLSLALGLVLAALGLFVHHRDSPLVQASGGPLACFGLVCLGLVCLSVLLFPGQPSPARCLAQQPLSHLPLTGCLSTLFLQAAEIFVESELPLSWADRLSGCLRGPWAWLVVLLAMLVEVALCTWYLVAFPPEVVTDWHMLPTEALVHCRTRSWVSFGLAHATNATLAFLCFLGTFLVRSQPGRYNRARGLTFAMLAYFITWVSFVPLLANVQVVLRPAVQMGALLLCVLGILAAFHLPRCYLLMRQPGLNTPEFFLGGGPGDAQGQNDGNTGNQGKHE


Molecular target: T1, human TAS1R2-WT/TAS1R3-C757R
Experiment: Calcium mobilisation assay, TAS1R2-WT with TAS1R3 variant C757R
Format: cell-based
Conditions: for Max ΔF/F0: maximal signal amplitude
Source text: The coding sequences for TAS1R2 and TAS1R3 were commercially synthesised, and the human codon was optimised for expression in human cells. The coding sequences of human TAS1R2 and TAS1R3 were subcloned and inserted into the mammalian expression vectors pcDNA6/myc-HisA and pcDNA4/myc-HisA (Invitrogen; Thermo Fisher Scientific; Illkirch, France) between the EcoRI and NotI restriction sites, generating the plasmids pcDNA6-TAS1R2 and pcDNA4-TAS1R3, respectively. To increase protein expression in mammalian cells, an upstream start codon was used, which was a sequence called MAX, corresponding to the QBI SP163 element also described in pcDNA4-HisMax (Invitrogen; Thermo Fisher Scientific; Illkirch, France). To measure the expression level of the receptor by immunohistochemistry, we used the FLAG sequence ([…]) in the C-terminal position, which encodes the FLAG tag epitope. SNP variants of TAS1R2 and TAS1R3 were constructed based on […], respectively, using site-directed mutagenesis (Genewiz; Leipzig, Germany).
The HEK293T cells were kindly provided by Jay P. Slack (Givaudan Flavors Corporation; Cincinnati, OH, USA). HEK293T cells stably transfected with Gα16gust44 [43, 67] were seeded in poly-D-lysine-coated clear-bottom black 96-well plates (0.35 × 10^5 cells/well) in high-glucose DMEM supplemented with 2 mM GlutaMAX, 10% dialysed foetal bovine serum with penicillin/streptomycin and G418 (400 μg/mL) at 37 °C and 6.3% CO2 in a humidified atmosphere as previously reported. […] As a negative control, HEK293T cells were mock-transfected with the empty expression vector. After a further 24 h of incubation, the HEK293T cells were washed with C1 buffer (130 mM NaCl, 5 mM KCl, 10 mM HEPES pH 7.4 and 2 mM CaCl2). The 96-well plates containing the cells were then stimulated with sweet-tasting compounds. […] Different concentration ranges were tested depending on the sweet compound injected. The Ca^2+ changes were expressed as fractional changes in fluorescent light intensity: ΔF/F = (F − F0)/F0, where F was the fluorescent light intensity at each point, and F0 was the value of emitted fluorescent light prior to stimulus application. To calculate dose–response relationships, the changes in fluorescence upon stimulus application were averaged, mock-subtracted and baseline-corrected. The dose–response data obtained were adjusted using a 4-parameter logistic equation. The half-maximal effective concentrations (EC50 values) and maximal signal amplitudes were calculated using SigmaPlot software (version 15.0) (Systat Software; San Jose, CA, USA).
For in vitro calcium mobilisation assay performed on hTAS1R2-SNPs, hTAS1R3-SNPs and mTAS1R3-I60T, 6 to 7 concentrations were tested for each sweet compound, plus buffer alone. All concentration–receptor combinations were measured in duplicate, and each experiment was repeated at least 4 times (8 wells/concentration). Results were expressed for each concentration as ΔF/F mean ± SEM and represented as dose–response curves.

Molecule	R1 = Variant EC50/WT EC50	Max ΔF/F0	EC50 (read-out: EC50) [µM]	EC50 (brazzein) [µg/mL]
O=S(=O)(O)NC1CCCCC1 [Cyclamate, cyclamate]	–	–	1150 ± 54	–
C[C@H](CC[C@@H](O[C@@H]1O[C@H](CO[C@@H]2O[C@H](CO)[C@@H](O)[C@H](O)[C@H]2O)[C@@H](O)[C@H](O)[C@H]1O[C@@H]1O[C@H](CO)[C@@H](O)[C@H](O)[C@H]1O)C(C)(C)O)[C@H]1CC[C@@]2(C)[C@@H]3CC=C4[C@@H](CC[C@H](O[C@@H]5O[C@H](CO[C@@H]6O[C@H](CO)[C@@H](O)[C@H](O)[C@H]6O)[C@@H](O)[C@H](O)[C@H]5O)C4(C)C)[C@]3(C)[C@H](O)C[C@]12C [Mogroside V, mogroside V]	0.7	1.03 ± 0.02	21.7 ± 1	–
COc1ccc(CCC(=O)c2c(O)cc(O[C@@H]3O[C@H](CO)[C@@H](O)[C@H](O)[C@H]3O[C@@H]3O[C@@H](C)[C@H](O)[C@@H](O)[C@H]3O)cc2O)cc1O [NHDC, neohesperidin dihydrochalcone]	0.7	0.98 ± 0.01	36.5 ± 16	–
C=C(C)[C@@H]1CC=C(/C=N/O)CC1 [Perillartine, perillartine]	0.6	1.23 ± 0.13	8.1 ± 2.6	–
C=C1C[C@@]23CC[C@H]4[C@@](C)(CCC[C@@]4(C)C(=O)O[C@@H]4O[C@H](CO)[C@@H](O)[C@H](O[C@@H]5O[C@H](CO)[C@@H](O)[C@H](O)[C@H]5O)[C@H]4O[C@@H]4O[C@H](CO)[C@@H](O)[C@H](O)[C@H]4O)[C@@H]2CC[C@]1(O[C@@H]1O[C@H](CO)[C@@H](O)[C@H](O[C@@H]2O[C@H](CO)[C@@H](O)[C@H](O)[C@H]2O)[C@H]1O[C@@H]1O[C@H](CO)[C@@H](O)[C@H](O)[C@H]1O)C3 [Rebaudioside M, rebaudioside M]	0.6	1.13 ± 0.04	24.3 ± 2.2	–
thaumatin (protein, Eight disulfides, sweet-tasting plant protein, E957) ATFEIVNRCSYTVWAAASKGDAALDAGGRQLNSGESWTINVEPGTKGGKIWARTDCYFDDSGSGICKTGDCGGLLRCKRFGRPPTTLAEFSLNQYGKDYIDISNIKGFNVPMDFSPTTRGCRGVRCAADIVGQCPAKLKAPGGGCNDACTVFQTSEYCCTTGKCGPTEYSRFFKRLCPDAFSYVLDKPTTVTCPGSSNYRVTFCPTA	–	–	6.7 ± 1.4	–

Second part, the molecule after the results:

R1 = Variant EC50/WT EC50	Max ΔF/F0	EC50 (read-out: EC50) [µM]	EC50 (brazzein) [µg/mL]	Molecule
0.8	0.42 ± 0.01	468 ± 31	–	CC1=CC(=O)NS(=O)(=O)O1 [Acesulfame K, acesulfame K]
0.7	0.75 ± 0.03	0.88 ± 0.12	–	COC(=O)[C@H](Cc1ccccc1)NC(=O)[C@H](CC(=O)O)NCCC(C)(C)C [Neotame]
1.0	0.84 ± 0.03	113 ± 10	–	OC[C@H]1O[C@H](O[C@]2(CCl)O[C@H](CCl)[C@@H](O)[C@@H]2O)[C@H](O)[C@@H](O)[C@H]1Cl [Sucralose]
0.7	0.86 ± 0.06	–	74.2 ± 1.9	brazzein (QDKCKKVYENYPVSKCQLANQCNYDCKLDKHARSGECFYDEKRNLQCICDYCEY; ends and bridges not checked; cysteine pairing not given here; UniProt P56552 1-54, looked up) [sweet-tasting protein obtained by recombinant production using the yeast Pichia pastoris]
0.6	0.69 ± 0.05	–	–	thaumatin
